Data from patent publication US9162975B2, “Phenyl carbamate compounds for use in alleviating or treating pain” (Bio-Pharm Solutions Co., Ltd., priority 2011, dated 2015).

Columns and labels:
ICR mice [1] = experiment: Writhing test (acetic acid); type: in vivo; settings: number of writhes relative to vehicle control, 20 mg/kg po, 0.6% acetic acid
Method: To examine the pain relief effect of the phenyl carbamate compounds, a writhing test was conducted in general pain animal model referring to Fischer, L. G. et al. (2008).
(§1) ICR mice (male, 24-28 g; Orient Bio, Korea) were habituated before test in test room for 1 hour Animals were fasted 2 hr, before administration of compounds. Each of Compound 1, 2, 3, 4, 5, 63, 65, and 67 was orally administered at the dose of 20 mg/kg, 10 ul/g, bw (n=3˜5/group). All compounds were dissolved in a vehicle of 30% (v/v) PEG 400 or 20% (v/v) Tween 80. The control group was treated the vehicle without compounds.
One hour after the administration of Compounds, 0.6% acetic acid at the dose of 10 ul/g, bw was injected into the mice. Animals were habituated in the cage for 5 min 5 min after habituation, the number of writhes (abdominal constriction) for 15 min was counted referring to Korzeniewska-Rybicka, I. et al. (1998) and compared with that of a control.

mice = experiment: Measurement of neurotoxicity (rotarod); type: in vivo; settings: protective index, ratio of TD50 to ED50 in MES
Method: The measurement of neurotoxicity of the test compounds was conducted by the method of Dunham and Miya [Dunham, N. W. and Miya, T. S. 1957. A note on a simple apparatus for detecting neurological deficit in rats and mice. J. Am. Pharm. Assoc. (Baltimore) 46: 208-209]. In the method, motor abilities of the test animals can be determined by observing whether the test animals can walk without falling from a rotator, thereby determining the value of neurotoxicity of each compound. […] They were pre-trained on the rotarod (Rotarod; Columbus instrument, rota-max, USA) at 6 rpm for 5 min 24 hr prior to the test. The peak time was determined by administration test material's random dose for 0.5, 1, 2, 4 hour. […] The ratio of TD50 to ED50 (TD50/ED50) is called as a protective index, and useful as a parameter for comparison of pharmaceutical efficacy and neurotoxicity.

ICR mice [2] = experiment: Hot-plate test; type: in vivo; settings: withdrawal latency relative to vehicle control, 150 mg/kg po, hot plate 55±1° C.
Method: To examine the pain relief effect of the phenyl carbamate compounds, a hot-plate test was conducted in general pain animal model referring to Current Protocols in Neuroscience; Behavioral Neuroscience Unit 8.9.
as §1, with “(male, 30-35” for “(male, 24-28”, “2 hr” for “2 hr,”, “of 150” for “of 20”, “bw (n=7˜10/group).” for “bw (n=3˜5/group).”
0.5 hr after the administration of compounds, the mice were put on a hot plate pre-heated to 55±1° C. (Hu, X. et al, 2008), and then, measured as the withdrawal latency (cut-off time: 30 sec) time until the point when each mouse was taking off a paw from the plate, shaking, licking a paw or hind leg, or jumping from the plate.

SNL model in rats = experiment: Antiallodynic activity on Chung model (SNL, spinal nerve ligation), von Frey; type: in vivo, Sprague-Dawley rats; settings: paw withdrawal threshold relative to sham, 50 mg/kg p.o.
Method: Male Sprague-Dawley rats (200-220 g, Orient Bio, Korea) were habituated for 1 week before the experiment and allowed free access to food and water throughout the experimentation. Room temperature and humidity were maintained at 24±2° C. and 50±10%, respectively. Neuropathic surgery (SNL, Spinal nerve ligation) model was done as described in Kim and Chung (1992). Briefly, animal under gaseous anesthesia with isoflurane a 4:4 flow ratio of NO2. The left lumber spinal nerve L5 and L6 were isolated and tightly ligated with 4˜0 silk thread. The wound was treated with a gentamicin antibiotics solution (4 mg/kg, 4 ul/g, bw), and the wound muscle was closed with cat cut chrome 4/0 thread and skin was closed dafilon 4/0 tread. Sham controls were prepared in the same manner as the spinal nerves were exposed, but no ligated L5 and L6 nerves. But, vehicle controls were identical to SNL model, except for administration of vehicles.
Tactile sensitivity (Mechanical allodynia) was evaluated using von Frey monofilaments before and after treatment and animals were used withdrawal threshold value was less than 4 g. […] The tactile sensitivity for ipsilateral hind paw was measured using the up-and-down method (Dixon, 1980) with seven von Frey monofilaments (0.4, 1, 2, 4, 6, 8, and 15 g) to 3 trials. […] The 50% paw withdrawal threshold for each paw was calculated using the following formula: [Xth] log=[vFr] log+ky where [vFr] is the force of the last von Frey used, k=0.2249 which is the average interval (in log units) between the von Frey monofilaments, and y is a value that depends upon the pattern of withdrawal responses (Dixon, 1980).
All animals were fasted 18 h before the administration of the compounds. Antiallodynic effect of compounds of Examples 1, 63 and 65 were evaluated at the dose of 5, 10 and 30 mg/kg (n=5˜6), orally administrated in a volume of 5 ul/g, bw in a vehicle of 30% (v/v) PEG 400 (Examples 1 and 63) or 20% (v/v) Tween 80 (Example 65). […]

Structure (SMILES): CC(OC(N)=O)C(O)c1ccccc1Cl (racemic) [Example 3, 1-(2-chlorophenyl)-1-hydroxypropyl-2-carbamate]
- Writhing test (20 mg/kg, 1 h, po) % Control (ICR mice [1]): 84.8%
- PI(TD50/ED50 in MES) (mice): 12.0
- Hot-plate test (150 mg/kg, 0.5 h, po) % Control (ICR mice [2]): 120.5%

Structure (SMILES): C[C@@H](OC(N)=O)[C@H](O)c1ccccc1Cl [Example 2, 1-(2-chlorophenyl)-(R)-1-hydroxypropyl-(R)-2-carbamate]
- Writhing test (20 mg/kg, 1 h, po) % Control (ICR mice [1]): 73.8%
- PI(TD50/ED50 in MES) (mice): 7.3
- Hot-plate test (150 mg/kg, 0.5 h, po) % Control (ICR mice [2]): 129.8%

Structure (SMILES): C[C@@H](OC(N)=O)[C@@H](O)c1ccccc1Cl [Example 4, 1-(2-chlorophenyl)-(S)-1-hydroxypropyl-(R)-2-carbamate]
- Writhing test (20 mg/kg, 1 h, po) % Control (ICR mice [1]): 75.5%
- Hot-plate test (150 mg/kg, 0.5 h, po) % Control (ICR mice [2]): 108.2%

Structure (SMILES): C[C@H](OC(N)=O)[C@H](O)c1ccccc1Cl [Example 5, 1-(2-chlorophenyl)-(R)-1-hydroxypropyl-(S)-2-carbamate]
- Writhing test (20 mg/kg, 1 h, po) % Control (ICR mice [1]): 66.6%
- PI(TD50/ED50 in MES) (mice): 3.3
- Hot-plate test (150 mg/kg, 0.5 h, po) % Control (ICR mice [2]): 145.5%

Structure (SMILES): C[C@H](OC(N)=O)[C@@H](O)c1c(Cl)cccc1Cl [Example 37, 1-(2,6-dichlorophenyl)-(S)-1-hydroxypropyl-(S)-2-carbamate]
- PI(TD50/ED50 in MES) (mice): 5.1

Structure (SMILES): C[C@H](OC(N)=O)[C@@H](O)c1ccccc1F [Example 63, 1-(2-fluorophenyl)-(S)-1-hydroxypropyl-(S)-2-carbamate]
- Writhing test (20 mg/kg, 1 h, po) % Control (ICR mice [1]): 63.9%
- SNL (50 mg/kg, 1 h, p.o.) % Control (SNL model in rats): 55.4%
- Hot-plate test (150 mg/kg, 0.5 h, po) % Control (ICR mice [2]): 183.1%

Structure (SMILES): C[C@H](OC(N)=O)[C@@H](O)c1ccccc1I [Example 65, 1-(2-iodophenyl)-(S)-1-hydroxypropyl-(S)-2-carbamate]
- Writhing test (20 mg/kg, 1 h, po) % Control (ICR mice [1]): 60.6%
- SNL (50 mg/kg, 1 h, p.o.) % Control (SNL model in rats): 76.8%
- Hot-plate test (150 mg/kg, 0.5 h, po) % Control (ICR mice [2]): 104.1%

Structure (SMILES): CC[C@H](OC(N)=O)[C@@H](O)c1ccccc1I [Example 67, 1-(2-iodophenyl)-(S)-1-hydroxybutyl-(S)-2-carbamate]
- Writhing test (20 mg/kg, 1 h, po) % Control (ICR mice [1]): 68.3%
- Hot-plate test (150 mg/kg, 0.5 h, po) % Control (ICR mice [2]): 131.4%
